Experimental findings from ChEMBL document CHEMBL1129518, “Synthesis and pharmacologic evaluation of 2-endo-amino-3-exo-isopropylbicyclo[2.2.1]heptane: a potent imidazoline1 receptor specific agent” (J Med Chem, 1996) are described below.

Assay [1] has as its target T1, Adrenergic receptor alpha-1 (Homo sapiens, UniProt P35348+P25100+P35368).
T1 sequence (P35348 whole entry): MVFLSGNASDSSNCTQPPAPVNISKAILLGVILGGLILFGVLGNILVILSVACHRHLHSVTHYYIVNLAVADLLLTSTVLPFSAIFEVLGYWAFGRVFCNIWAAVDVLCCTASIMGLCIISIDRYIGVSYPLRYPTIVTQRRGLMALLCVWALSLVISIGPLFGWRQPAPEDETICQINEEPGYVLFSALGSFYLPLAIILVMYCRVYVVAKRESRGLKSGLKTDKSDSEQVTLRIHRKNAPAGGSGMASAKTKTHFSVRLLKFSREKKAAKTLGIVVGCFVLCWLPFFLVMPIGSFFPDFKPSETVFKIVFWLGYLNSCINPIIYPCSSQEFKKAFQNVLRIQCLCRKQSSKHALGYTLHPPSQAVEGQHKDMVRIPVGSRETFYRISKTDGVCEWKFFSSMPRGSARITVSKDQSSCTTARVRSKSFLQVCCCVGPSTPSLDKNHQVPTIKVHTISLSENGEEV
T1 sequence (P25100 whole entry): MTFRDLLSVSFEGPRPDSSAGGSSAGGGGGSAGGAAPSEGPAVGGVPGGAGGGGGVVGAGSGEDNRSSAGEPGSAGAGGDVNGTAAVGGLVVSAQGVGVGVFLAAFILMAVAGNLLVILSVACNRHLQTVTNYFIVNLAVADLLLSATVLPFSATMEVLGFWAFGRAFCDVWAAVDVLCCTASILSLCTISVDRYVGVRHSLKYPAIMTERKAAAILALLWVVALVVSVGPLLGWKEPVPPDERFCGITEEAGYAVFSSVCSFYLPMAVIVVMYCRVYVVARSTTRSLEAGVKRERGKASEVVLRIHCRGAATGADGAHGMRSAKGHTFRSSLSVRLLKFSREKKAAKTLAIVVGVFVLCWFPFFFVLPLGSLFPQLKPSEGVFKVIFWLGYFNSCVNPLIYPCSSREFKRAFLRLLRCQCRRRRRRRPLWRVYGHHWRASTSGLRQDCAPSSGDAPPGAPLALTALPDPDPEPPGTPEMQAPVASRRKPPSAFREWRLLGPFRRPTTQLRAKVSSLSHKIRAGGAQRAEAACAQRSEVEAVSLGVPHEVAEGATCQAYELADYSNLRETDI
T1 sequence (P35368 whole entry): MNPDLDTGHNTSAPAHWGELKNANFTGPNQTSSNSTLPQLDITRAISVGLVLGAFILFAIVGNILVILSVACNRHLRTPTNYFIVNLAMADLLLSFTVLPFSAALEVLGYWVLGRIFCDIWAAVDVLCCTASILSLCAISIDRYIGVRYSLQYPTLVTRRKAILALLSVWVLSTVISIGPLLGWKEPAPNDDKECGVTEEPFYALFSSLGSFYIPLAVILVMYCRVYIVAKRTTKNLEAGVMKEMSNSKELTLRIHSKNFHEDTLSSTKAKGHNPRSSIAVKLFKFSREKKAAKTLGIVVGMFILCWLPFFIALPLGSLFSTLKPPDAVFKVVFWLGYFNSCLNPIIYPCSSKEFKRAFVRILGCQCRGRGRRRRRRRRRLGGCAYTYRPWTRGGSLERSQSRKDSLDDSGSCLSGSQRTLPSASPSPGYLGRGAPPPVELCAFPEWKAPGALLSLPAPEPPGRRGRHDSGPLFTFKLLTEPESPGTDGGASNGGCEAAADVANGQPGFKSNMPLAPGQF
Description: Binding affinity for human brain Alpha-1 adrenergic receptor.

The target of assay [2] is T2, Alpha-2A adrenergic receptor (Homo sapiens, UniProt P08913).
T2 sequence (P08913 whole entry): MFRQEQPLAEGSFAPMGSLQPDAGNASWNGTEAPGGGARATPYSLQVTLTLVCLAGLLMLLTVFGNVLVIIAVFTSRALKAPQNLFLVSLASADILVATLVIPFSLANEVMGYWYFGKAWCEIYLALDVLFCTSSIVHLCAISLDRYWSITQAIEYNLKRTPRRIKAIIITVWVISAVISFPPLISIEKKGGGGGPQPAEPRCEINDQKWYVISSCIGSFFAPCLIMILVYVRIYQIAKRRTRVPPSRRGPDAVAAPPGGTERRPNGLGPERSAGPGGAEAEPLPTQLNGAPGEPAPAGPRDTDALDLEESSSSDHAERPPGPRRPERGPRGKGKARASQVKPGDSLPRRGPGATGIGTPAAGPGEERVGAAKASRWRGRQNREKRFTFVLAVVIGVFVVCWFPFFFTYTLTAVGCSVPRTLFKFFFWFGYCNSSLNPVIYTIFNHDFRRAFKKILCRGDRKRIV
Description: Binding affinity for human Alpha-2A adrenergic receptor.

Assay [3] deals with T3, Alpha-2C adrenergic receptor (Homo sapiens, UniProt P18825).
T3 sequence (P18825 whole entry): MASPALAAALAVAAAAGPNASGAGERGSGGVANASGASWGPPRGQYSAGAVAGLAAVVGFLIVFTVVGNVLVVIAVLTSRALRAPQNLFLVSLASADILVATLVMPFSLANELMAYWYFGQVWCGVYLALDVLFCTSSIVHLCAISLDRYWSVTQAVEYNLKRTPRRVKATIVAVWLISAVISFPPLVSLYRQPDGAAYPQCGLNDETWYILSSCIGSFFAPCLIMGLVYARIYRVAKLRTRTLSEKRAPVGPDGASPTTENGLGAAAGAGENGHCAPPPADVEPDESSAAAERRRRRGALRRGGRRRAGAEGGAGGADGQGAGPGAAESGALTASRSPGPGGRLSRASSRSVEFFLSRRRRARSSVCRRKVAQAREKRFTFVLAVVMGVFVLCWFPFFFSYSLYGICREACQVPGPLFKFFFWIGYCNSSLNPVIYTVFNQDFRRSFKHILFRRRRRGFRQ
Description: Binding affinity for human Alpha-2C adrenergic receptor.

The target of assay [4] is T4, Alpha-2B adrenergic receptor (Rattus norvegicus, UniProt P19328).
T4 sequence (P19328 whole entry): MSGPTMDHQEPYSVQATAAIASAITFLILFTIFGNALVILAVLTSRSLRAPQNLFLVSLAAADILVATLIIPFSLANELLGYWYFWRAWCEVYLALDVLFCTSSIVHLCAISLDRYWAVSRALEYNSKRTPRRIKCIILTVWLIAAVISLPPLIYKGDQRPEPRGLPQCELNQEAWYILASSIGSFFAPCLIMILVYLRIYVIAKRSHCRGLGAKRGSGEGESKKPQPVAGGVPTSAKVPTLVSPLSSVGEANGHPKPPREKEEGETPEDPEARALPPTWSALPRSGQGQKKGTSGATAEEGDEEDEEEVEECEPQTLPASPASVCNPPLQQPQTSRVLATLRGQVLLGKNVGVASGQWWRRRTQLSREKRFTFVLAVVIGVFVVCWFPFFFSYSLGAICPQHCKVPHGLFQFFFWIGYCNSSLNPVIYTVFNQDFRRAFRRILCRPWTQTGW
Briefly: Binding affinity for rat Alpha-2B adrenergic receptor.

By Ki is commonly meant a dissociation constant, usually derived from enzyme kinetics or from competition with a known ligand. Lower therefore signals tighter binding. Consider `COc1nc(C)nc(Cl)c1NC1=NCCN1` [MOXONIDINE], for which, in assay [1], the Ki was above 30 µM.
For the molecule `CC(C)C1C2CCC(C2)C1N` (stereo not given), the Ki in assay [1] was above 100 µM; in assay [2] it was above 20 µM; in assay [3], above 20 µM; in assay [4], above 20 µM.
